Laboratory results from patent publication US11807644B2 (PMV Pharmaceuticals, Inc., priority 2020, dated 2023).

Target: T1, recombinant His-tag Y220C p53 DBD protein (Homo sapiens, UniProt P04637, Y220C)
T1 construct: recombinant His-tag Y220C p53 DBD protein (amino acids #˜94-312)
Test: In vitro DNA binding activity assay (TR-FRET): binding of His-tag Y220C p53 DBD to biotin-labeled consensus DNA
Assay type: biochemical
Conditions: for Y220C SC150 (μM): SC150 = concentration to increase DNA binding by […], His-tag Y220C p53 DBD, biotin-labeled consensus DNA; for SC150 (μM): concentration to increase DNA binding by […], incubated at either 27° C. or 29° C. for 60 min

SMILES: COC[C@H]1CCCN1c1nc(C(=O)NCc2nc(-c3cc4c(N[C@@H]5CCN(C)C[C@@H]5F)cccc4n3CC(F)(F)F)no2)cs1 [Compound 520B, N-{[3-(4-{[(3S,4R)-3-fluoro-1-methylpiperidin-4-yl]amino}-1-(2,2,2-trifluoroethyl)-1H-indol-2-yl)-1,2,4-oxadiazol-5-yl]methyl}-2-[(2R)-2-(methoxymethyl)pyrrolidin-1-yl]-1,3-thiazole-4-carboxamide]
- Y220C SC150 (μM): * (* = 0 μM ≤ SC150 < 0.1 μM)

SMILES: CN(C)c1cccc(-c2cc3c(NC4CCS(=O)(=O)CC4)cccc3n2CC(F)(F)F)c1 [Compound 21A, 4-({2-[3-(dimethylamino)phenyl]-1-(2,2,2-trifluoroethyl)-1H-indol-4-yl}amino)-1λ^6-thiane-1,1-dione]
- SC150 (μM): ++ (++ = 2 μM ≤ SC150 < 5 μM)

SMILES: Cn1ccc(-c2cc3c(NC4CCS(=O)(=O)CC4)cccc3n2CC(F)(F)F)n1 [Compound 14B, 4-{[2-(1-methyl-1H-pyrazol-3-yl)-1-(2,2,2-trifluoroethyl)-1H-indol-4-yl]amino}-1λ^6-thiane-1,1-dione]
- Y220C SC150 (μM): **** (**** = 1 μM ≤ SC150 < 10 μM)

SMILES: O=C(NCc1nnc(-c2cc3c(N[C@@H]4CCNC[C@@H]4F)cccc3n2CC(F)(F)F)s1)OCc1ccccc1 [Compound 70B, benzyl N-{[5-(4-{[(3S,4R)-3-fluoropiperidin-4-yl]amino}-1-(2,2,2-trifluoroethyl)-1H-indol-2-yl)-1,3,4-thiadiazol-2-yl]methyl}carbamate]
- Y220C SC150 (μM): * (* = 0 μM ≤ SC150 < 0.1 μM)

SMILES: CC(C)Cn1ccc(C(=O)NCc2nc(-c3cc4c(N[C@@H]5CCN(C)C[C@@H]5F)cccc4n3CC(F)(F)F)no2)c1 [Compound 240B, N-{[3-(4-{[(3S,4R)-3-fluoro-1-methylpiperidin-4-yl]amino}-1-(2,2,2-trifluoroethyl)-1H-indol-2-yl)-1,2,4-oxadiazol-5-yl]methyl}-1-(2-methylpropyl)-1H-pyrrole-3-carboxamide]
- Y220C SC150 (μM): * (* = 0 μM ≤ SC150 < 0.1 μM)

SMILES: C[C@H]1CN(C)CC[C@H]1Nc1cccc2c1cc(-c1noc(CNC(=O)c3ccn(C(C)(C)C)c3)n1)n2CC(F)(F)F [Compound 514B, 1-tert-butyl-N-{[3-(4-{[(3S,4R)-1,3-dimethylpiperidin-4-yl]amino}-1-(2,2,2-trifluoroethyl)-1H-indol-2-yl)-1,2,4-oxadiazol-5-yl]methyl}-1H-pyrrole-3-carboxamide]
- Y220C SC150 (μM): * (* = 0 μM ≤ SC150 < 0.1 μM)

SMILES: CNC(=O)c1cccc(-c2cc3c(NC4CCS(=O)(=O)CC4)cccc3n2CC(F)(F)F)c1 [Compound 22A, 3-{4-[(1,1-dioxo-1λ^6-thian-4-yl)amino]-1-(2,2,2-trifluoroethyl)-1H-indol-2-yl}-N-methylbenzamide]
- SC150 (μM): ++ (++ = 2 μM ≤ SC150 < 5 μM)

SMILES: CO[C@@]1(C)CC[C@H](n2ccc(C(=O)NCc3nc(-c4cc5c(N[C@@H]6CCN(C)C[C@@H]6F)cccc5n4CC(F)(F)F)no3)c2)C1 (racemic) [Compound 388B]
- Y220C SC150 (μM): * (* = 0 μM ≤ SC150 < 0.1 μM)

SMILES: COCc1cc(C(=O)NCc2nc(-c3cc4c(N[C@@H]5CCN(C)C[C@@H]5F)cccc4n3CC(F)(F)F)no2)cc(C)n1 [Compound 551B, N-{[3-(4-{[(3S,4R)-3-fluoro-1-methylpiperidin-4-yl]amino}-1-(2,2,2-trifluoroethyl)-1H-indol-2-yl)-1,2,4-oxadiazol-5-yl]methyl}-2-(methoxymethyl)-6-methylpyridine-4-carboxamide]
- Y220C SC150 (μM): * (* = 0 μM ≤ SC150 < 0.1 μM)

SMILES: CC(C)(C)n1cc(C(=O)NCc2nc(-c3cc4c(N[C@H]5CCOC[C@H]5F)cccc4n3CC(F)(F)F)no2)cn1 [Compound 498B, 1-tert-butyl-N-{[3-(4-{[(3S,4S)-3-fluorooxan-4-yl]amino}-1-(2,2,2-trifluoroethyl)-1H-indol-2-yl)-1,2,4-oxadiazol-5-yl]methyl}-1H-pyrazole-4-carboxamide]
- Y220C SC150 (μM): * (* = 0 μM ≤ SC150 < 0.1 μM)

SMILES: CC(=O)NCc1nc(-c2cc3c(N[C@@H]4CCN(C)C[C@@H]4F)cccc3n2CC(F)(F)F)no1 [Compound 228B, N-{[3-(4-{[(3S,4R)-3-fluoro-1-methylpiperidin-4-yl]amino}-1-(2,2,2-trifluoroethyl)-1H-indol-2-yl)-1,2,4-oxadiazol-5-yl]methyl}acetamide]
- Y220C SC150 (μM): * (* = 0 μM ≤ SC150 < 0.1 μM)

SMILES: CN1CC[C@@H](Nc2cccc3c2cc(-c2cc(CNC(=O)c4csc(C(C)(C)O)c4)on2)n3CC(F)(F)F)[C@@H](F)C1 [Compound 555B, N-{[3-(4-{[(3S,4R)-3-fluoro-1-methylpiperidin-4-yl]amino}-1-(2,2,2-trifluoroethyl)-1H-indol-2-yl)-1,2-oxazol-5-yl]methyl}-5-(2-hydroxypropan-2-yl)thiophene-3-carboxamide]
- Y220C SC150 (μM): * (* = 0 μM ≤ SC150 < 0.1 μM)

SMILES: CN1CCC(n2cc(C(=O)NCc3nc(-c4cc5c(N[C@@H]6CCN(C)C[C@@H]6F)cccc5n4CC(F)(F)F)no3)cn2)CC1 [Compound 350B, N-{[3-(4-{1[(3S,4R)-3-fluoro-1-methylpiperidin-4-yl]amino}-1-(2,2,2-trifluoroethyl)-1H-indol-2-yl)-1,2,4-oxadiazol-5-yl]methyl}-1-(1-methylpiperidin-4-yl)-1H-pyrazole-4-carboxamide]
- Y220C SC150 (μM): * (* = 0 μM ≤ SC150 < 0.1 μM)

SMILES: CN1CC[C@H](Nc2cccc3c2cc(-c2nnc(CNCC4CC4)o2)n3CC(F)(F)F)[C@H](F)C1 (racemic) [Compound 121B, (+/−)-2-(5-{[(cyclopropylmethyl)amino]methyl}-1,3,4-oxadiazol-2-yl)-N-[(3R,4S)-3-fluoro-1-methylpiperidin-4-yl]-1-(2,2,2-trifluoroethyl)-1H-indol-4-amine]
- Y220C SC150 (μM): **** (**** = 1 μM ≤ SC150 < 10 μM)

SMILES: Cn1cc(C(=O)NCc2nc(-c3cc4c(N[C@H]5CCN(C(C)(C)C)C[C@H]5F)cccc4n3CC(F)(F)F)no2)cn1 [Compound 406B, N-{[3-(4-{[(3R,4S)-1-tert-butyl-3-fluoropiperidin-4-yl]amino}-1-(2,2,2-trifluoroethyl)-1H-indol-2-yl)-1,2,4-oxadiazol-5-yl]methyl}-1-methyl-1H-pyrazole-4-carboxamide]
- Y220C SC150 (μM): * (* = 0 μM ≤ SC150 < 0.1 μM)

SMILES: CN1CCN(C[C@@H]2C[C@H]2C(=O)NCc2nc(-c3cc4c(N[C@@H]5CCN(C)C[C@@H]5F)cccc4n3CC(F)(F)F)no2)CC1 [Compound 234B, (1R,2R)-N-{[3-(4-{[(3S,4R)-3-fluoro-1-methylpiperidin-4-yl]amino}-1-(2,2,2-trifluoroethyl)-1H-indol-2-yl)-1,2,4-oxadiazol-5-yl]methyl}-2-[(4-methylpiperazin-1-yl)methyl]cyclopropane-1-carboxamide]
- Y220C SC150 (μM): * (* = 0 μM ≤ SC150 < 0.1 μM)

SMILES: CN1CCC(Nc2cccc3c2cc(-c2nnc(CNC(=O)N(C)C)s2)n3CC(F)(F)F)CC1 [Compound 68B, 3,3-dimethyl-1-[(5-{4-[(1-methylpiperidin-4-yl)amino]-1-(2,2,2-trifluoroethyl)-1H-indol-2-yl}-1,3,4-thiadiazol-2-yl)methyl]urea]
- Y220C SC150 (μM): ** (** = 0.1 μM ≤ SC150 < 0.5 μM)

SMILES: CCN1CC[C@@H](Nc2cccc3c2cc(-c2noc(CNC(=O)c4ccn(CCF)c4)n2)n3CC(F)(F)F)[C@@H](F)C1 [Compound 293B, N-{[3-(4-{[(3S,4R)-1-ethyl-3-fluoropiperidin-4-yl]amino}-1-(2,2,2-trifluoroethyl)-1H-indol-2-yl)-1,2,4-oxadiazol-5-yl]methyl}-1-(2-fluoroethyl)-1H-pyrrole-3-carboxamide]
- Y220C SC150 (μM): * (* = 0 μM ≤ SC150 < 0.1 μM)

SMILES: CN1CC[C@@H](Nc2cccc3c2cc(-c2noc(CNC(=O)c4cnn(C5CCCCC5)c4)n2)n3CC(F)(F)F)[C@@H](F)C1 [Compound 326B, 1-cyclohexyl-N-{[3-(4-{[(3S,4R)-3-fluoro-1-methylpiperidin-4-yl]amino}-1-(2,2,2-trifluoroethyl)-1H-indol-2-yl)-1,2,4-oxadiazol-5-yl]methyl}-1H-pyrazole-4-carboxamide]
- Y220C SC150 (μM): * (* = 0 μM ≤ SC150 < 0.1 μM)

SMILES: C[C@H]1CN(C)CC[C@H]1Nc1cccc2c1cc(-c1noc(CNC(=O)c3ccc(C(C)(C)O)s3)n1)n2CC(F)(F)F [Compound 509B, N-{[3-(4-{[(3S,4R)-1,3-dimethylpiperidin-4-yl]amino}-1-(2,2,2-trifluoroethyl)-1H-indol-2-yl)-1,2,4-oxadiazol-5-yl]methyl}-5-(2-hydroxypropan-2-yl)thiophene-2-carboxamide]
- Y220C SC150 (μM): * (* = 0 μM ≤ SC150 < 0.1 μM)

SMILES: CN1CC[C@@H](Nc2cccc3c2cc(-c2noc(CNC(=O)c4ccn(C5(C)COC5)c4)n2)n3CC(F)(F)F)[C@@H](F)C1 [Compound 386B, N-{[3-(4-{[(3S,4R)-3-fluoro-1-methylpiperidin-4-yl]amino}-1-(2,2,2-trifluoroethyl)-1H-indol-2-yl)-1,2,4-oxadiazol-5-yl]methyl}-1-(3-methyloxetan-3-yl)-1H-pyrrole-3-carboxamide]
- Y220C SC150 (μM): * (* = 0 μM ≤ SC150 < 0.1 μM)

SMILES: CN1CCC(Nc2cccc3c2cc(-c2nnc(CNc4ccccc4)o2)n3CC(F)(F)F)CC1 [Compound 108B, N-(1-methylpiperidin-4-yl)-2-{5-[(phenylamino)methyl]-1,3,4-oxadiazol-2-yl}-1-(2,2,2-trifluoroethyl)-1H-indol-4-amine]
- Y220C SC150 (μM): ** (** = 0.1 μM ≤ SC150 < 0.5 μM)

SMILES: CN1CC[C@@H](Nc2cccc3c2cc(-c2noc(CNC(=O)c4cnn(C)c4)n2)n3CC(F)(F)F)[C@@H](F)C1 [Compound 294B, N-{[3-(4-{[(3S,4R)-3-fluoro-1-methylpiperidin-4-yl]amino}-1-(2,2,2-trifluoroethyl)-1H-indol-2-yl)-1,2,4-oxadiazol-5-yl]methyl}-1-methyl-1H-pyrazole-4-carboxamide]
- Y220C SC150 (μM): * (* = 0 μM ≤ SC150 < 0.1 μM)
